The values that follow come from patent US20230158124A1, “DRUG, FOOD AND APPLICATION OF ANTI-CORONAVIRUS INFECTION” (priority 2020, published 2023).

The subject of one assay is novel coronavirus. The experiment in a line: In vitro inhibition of cytopathic effect caused by novel coronavirus in Vero E6 cells (CCK8). The assay is classed as cell-based, COVID-19 novel coronavirus. The conditions noted are these: for inhibition of cytopathic effect caused by the novel coronavirus (in words): Vero E6, summary of Table 1. Background: Protection from cytopathic effect is a common read-out in antiviral testing.

Another assay has as its system IL-6 mRNA. It counts as cell-based, African green monkey. Conditions: 350 μg/mL; virus control 7.68 ± 0.50, blank 1.08 ± 0.07.
For assay [1], the system named is guinea pig inhaling smoke. Briefly: Airway resistance and lung function of guinea pig inhaling smoke. It counts as in vivo. Conditions: once daily 4 weeks. The procedure:
A smoked model is a classic animal modeling method of chronic obstructive pulmonary disease. After inhaling smoke for a long time, the animal may suffer from increase of mucus secretion, airway obstruction, and decrease of lung function. The effect of lysozyme on the airway obstruction was evaluated by the modeling method.
Male Hartley guinea pigs with weights ranging from 400 g to 500 g were randomly divided into a blank group, a model group, a lysozyme oral administration group (200 mg/kg), a lysozyme inhalation group (2 mg/kg), a lysozyme+monoammonium glycyrrhizinate inhalation group (2 mg/kg+0.1 mg/kg), a lysozyme+monopotassium glycyrrhizinate oral administration group I (200 mg/kg+20 mg/kg), and a lysozyme+monopotassium glycyrrhizinate oral administration group II (200 mg/kg+40 mg/kg), with eight animals in each group.
The animals in each group except the blank group were exposed to cigarette smoke by using a smoke exposure system inhaled only through nose and mouth, so that the animals inhaled smoke of five cigarettes within 40 minutes every day, for 5 days every week, and for 12 consecutive weeks.
Lysozyme and monoammonium glycyrrhizinate used for inhalation administration were respectively crushed into powder with a particle size less than […]. Then lysozyme and monopotassium glycyrrhizinate used for oral administration were respectively dissolved in normal saline.
The animals in each group except the blank group and the model group were administrated once every day for 4 consecutive weeks from the 8t^h week after modeling. The inhalation groups were administrated by a mouth and nose inhalation exposure system, while the oral administration groups were administrated by oral gavage. The blank group and the model group were administrated by oral gavage with normal saline every day.
Airway resistance measurement and the measurement of force expiratory volume in 100ms(millisecond) were performed after administration.
The animals were placed in a double chamber plethysmography system, and a specific airway resistance (sRaw) was measured after the animals were quiet for 10 minutes. The animals were anesthetized by intramuscular injection of ketamine, then a catheter was inserted into the trachea, and the force expiratory volume in 100ms […] was measured by a lung function detection system.

The subject of a further assay is Occludin mRNA. Briefly: Expression of intestinal tissue tight junction protein in LPS mice, jejunum, quantitative PCR (occludin). The assay is classed as in vivo. The conditions noted are these: 100 mg/kg, model 0.54 ± 0.09, blank 1.04 ± 0.12. The procedure:
(§1) Grouping and administration of animals: the animals were randomly divided into a blank group, a model group, a lysozyme group (100 mg/kg), a lysozyme+monoammonium glycyrrhizinate group A (100 mg/kg+2 mg/kg), a lysozyme+monoammonium glycyrrhizinate group B (100 mg/kg+10 mg/kg), a lysozyme+monoammonium glycyrrhizinate group C (100 mg/kg+20 mg/kg), and a lysozyme+dipotassium glycyrrhizinate group (100 mg/kg+2 mg/kg), with eight animals in each group. Each drug group was administrated by oral gavage according to the dosage every day, while the blank group and the model group were administrated with normal saline. The administration was continuously performed for 30 days.
(§2) Modeling: after the administration, the animals of each group except the blank group were intraperitoneally injected with 15 mg/kg lipopolysaccharide, and the blank group was injected with the normal saline. The animals were fasted for 12 hours after injection.
(§3) Determination of the expression of intestinal tissue tight junction protein: after the animals were killed, the jejunum tissue sample was taken to extract RNA, and relative expression levels of […] in the tissue were detected by quantitative PCR.

A further assay deals with TNF-α mRNA. The assay is classed as cell-based, African green monkey. The conditions noted are these: 350 μg/mL; virus control 3.61 ± 0.29, blank 1.01 ± 0.06.
The next assay deals with Claudin-1 mRNA. The experiment in a line: Expression of intestinal tissue tight junction protein in LPS mice, jejunum, quantitative PCR (Claudin-1). The assay is classed as in vivo. Conditions: 100 mg/kg, model 0.73 ± 0.13, blank 1.07 ± 0.11. As for the experimental part: as §1, §2, §3
For assay [2], the system named is intestinal barrier dysfunction of mice induced by lipopolysaccharide. Briefly: Intestinal permeability (serum FITC-glucan) in mice with intestinal barrier dysfunction induced by lipopolysaccharide. It counts as in vivo. Conditions: 100 mg/kg oral gavage 30 days; model 35.06 ± 5.75, blank 9.40 ± 1.45. The procedure:
Lipopolysaccharide could cause intestinal dysfunction of animals. The protective effects of the lysozyme and the combination containing lysozyme on the intestinal barrier dysfunction of mice induced by the lipopolysaccharide were researched in the test.
Test animals: male C57BL/6 mice with a cleaning degree, and with a weight ranging from 20 g to 25 g.
as §1, with “days. […]” for “days.”
Measurement of intestinal permeability: animals of each group were administrated by oral gavage with 600 mg/kg FITC-glucan (dissolved in a phosphate buffer), and blood was taken from an eyeball after 4 hours. The content of the FITC-glucan in serum was measured by fluorescence spectrometry (with an excitation wavelength of 480 nm and an emission wavelength of 520 nm).

Where [3] appears, read: 1,000 μg/mL, Vero E6, 100TCID50, 4 days.
Where [4] appears, read: 2,000 μg/mL, Vero E6, 100TCID50, 4 days.

On to `CC1(C)[C@@H](O[C@H]2O[C@H](C(=O)O)[C@@H](O)[C@H](O)[C@H]2O[C@@H]2O[C@H](C(=O)O)[C@@H](O)[C@H](O)[C@H]2O)CC[C@]2(C)[C@H]3C(=O)C=C4[C@@H]5C[C@@](C)(C(=O)O)CC[C@]5(C)CC[C@@]4(C)[C@]3(C)CC[C@@H]12.N` [Monoammonium glycyrrhizinate, monoammonium glycyrrhizinate, reference compound], for which the “Inhibition rate (%) on cytopathic effect” value in the assay on novel coronavirus (setting [3]) is on record as 23.35 ± 5.43%; with novel coronavirus (setting [4]), 29.42 ± 7.16%. In the assay with novel coronavirus, the “inhibition of cytopathic effect caused by the novel coronavirus (in words)” value is listed as “weak inhibition effect”.
Turning to Lysozyme, the “Inhibition rate (%) on cytopathic effect” value with novel coronavirus (350 μg/mL, Vero E6) stood at 6.67 ± 1.56%; in the assay with novel coronavirus (500 μg/mL, Vero E6, 100TCID50, 4 days), 15.00 ± 8.66%; with novel coronavirus (setting [3]), 46.67 ± 15.28%; in the assay on novel coronavirus (setting [4]) it was 78.33 ± 2.89%. For the same compound, the “inhibition of cytopathic effect caused by the novel coronavirus (in words)” value in the assay on novel coronavirus is recorded as “significantly inhibit”. Moreover, in the assay with IL-6 mRNA, the “IL-6 mRNA Relative expression quantity” value is listed as 6.78 ± 0.30. For the same compound, the Airway resistance is given as 3.10 ± 0.14 cmH2O · s in assay [1] (inhalation, 2 mg/kg) and 3.79 ± 0.30 cmH2O · s in assay [1] (oral administration, 200 mg/kg, model 4.72 ± 0.38, blank 1.43 ± 0.24). In addition, the “Force expiratory volume in 100 ms” value amounted to 7.68 ± 1.36 mL in assay [1] (inhalation, 2 mg/kg) and 5.79 ± 2.03 mL in assay [1] (oral administration, 200 mg/kg, model 4.18 ± 1.26, blank 11.86 ± 1.24). For the same compound, in the assay with Occludin mRNA, the “Occludin mRNA Relative expression quantity” value is on record as 0.69 ± 0.07. Besides, in the assay with TNF-α mRNA, the “TNF-α mRNA Relative expression quantity” value came out at 3.12 ± 0.26. In the assay with Claudin-1 mRNA, the “Claudin-1 mRNA Relative expression quantity” value was determined as 0.79 ± 0.16. For the same compound, the “Content of FITC-glucan (serum)” value in assay [2] came out at 27.53 ± 3.21 µg/mL.
